From paper PMC1847690 (PLoS Pathogens, 2007)

Key:
[1] = molecular target: PknK kinase domain (PknK1–289) (Mycobacterium tuberculosis, UniProt P9WI65)
UsfX (Rv3287c) = molecular target: T1, UsfX (Rv3287c) (Mycobacterium tuberculosis, UniProt P9WGX7)
T1 construct: gene rsbW

[2] = molecular target: PknE kinase domain (PknE1–286) (Mycobacterium tuberculosis, UniProt P9WI77)
[3] = molecular target: PknB kinase domain (PknB1–308) (Mycobacterium tuberculosis, UniProt P9WI81)
[4] = molecular target: PknA kinase domain (PknA1–337) (Mycobacterium tuberculosis, UniProt P9WI83)
Chain of PknA kinase domain (PknA1–337) (P9WI83 1-337): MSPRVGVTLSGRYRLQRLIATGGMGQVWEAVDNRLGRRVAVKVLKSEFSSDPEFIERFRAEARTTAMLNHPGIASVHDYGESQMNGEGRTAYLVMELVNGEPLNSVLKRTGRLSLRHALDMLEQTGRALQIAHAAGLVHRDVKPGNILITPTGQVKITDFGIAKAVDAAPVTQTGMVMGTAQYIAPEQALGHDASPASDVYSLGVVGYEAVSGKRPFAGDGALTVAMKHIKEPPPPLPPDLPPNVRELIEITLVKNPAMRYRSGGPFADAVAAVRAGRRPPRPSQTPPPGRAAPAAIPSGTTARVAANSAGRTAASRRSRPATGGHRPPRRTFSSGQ

[5] = molecular target: PknD kinase domain (PknD1–378) (Mycobacterium tuberculosis, UniProt P9WI79)
Chain of PknD kinase domain (PknD1–378) (P9WI79 1-378): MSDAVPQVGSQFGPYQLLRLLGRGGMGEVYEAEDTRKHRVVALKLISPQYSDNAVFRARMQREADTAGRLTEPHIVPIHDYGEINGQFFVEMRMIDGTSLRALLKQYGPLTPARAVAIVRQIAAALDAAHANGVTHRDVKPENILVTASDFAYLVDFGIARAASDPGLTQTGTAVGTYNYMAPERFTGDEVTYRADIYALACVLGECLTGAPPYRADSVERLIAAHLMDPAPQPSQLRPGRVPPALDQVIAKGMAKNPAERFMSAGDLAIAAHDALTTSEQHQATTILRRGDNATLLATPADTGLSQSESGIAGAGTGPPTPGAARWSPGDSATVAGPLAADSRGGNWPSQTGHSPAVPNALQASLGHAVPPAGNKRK

Chain of PknE kinase domain (PknE1–286) (P9WI77 1-286): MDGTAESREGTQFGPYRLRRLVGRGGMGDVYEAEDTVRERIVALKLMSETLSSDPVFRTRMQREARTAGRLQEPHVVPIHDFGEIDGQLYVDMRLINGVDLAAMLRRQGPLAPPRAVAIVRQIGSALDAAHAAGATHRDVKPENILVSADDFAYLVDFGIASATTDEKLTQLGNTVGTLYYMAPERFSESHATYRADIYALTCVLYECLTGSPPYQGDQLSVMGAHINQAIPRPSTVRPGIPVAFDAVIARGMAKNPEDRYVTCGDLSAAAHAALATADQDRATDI
Chain of PknK kinase domain (PknK1–289) (P9WI65 1-289): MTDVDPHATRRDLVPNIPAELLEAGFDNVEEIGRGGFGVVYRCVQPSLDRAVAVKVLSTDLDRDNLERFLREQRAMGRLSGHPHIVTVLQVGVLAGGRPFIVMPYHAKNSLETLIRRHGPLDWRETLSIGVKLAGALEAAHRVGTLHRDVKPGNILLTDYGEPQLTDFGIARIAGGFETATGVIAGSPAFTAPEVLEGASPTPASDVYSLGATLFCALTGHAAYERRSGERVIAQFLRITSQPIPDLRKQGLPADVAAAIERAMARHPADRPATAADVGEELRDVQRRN
Chain of PknB kinase domain (PknB1–308) (P9WI81 1-308): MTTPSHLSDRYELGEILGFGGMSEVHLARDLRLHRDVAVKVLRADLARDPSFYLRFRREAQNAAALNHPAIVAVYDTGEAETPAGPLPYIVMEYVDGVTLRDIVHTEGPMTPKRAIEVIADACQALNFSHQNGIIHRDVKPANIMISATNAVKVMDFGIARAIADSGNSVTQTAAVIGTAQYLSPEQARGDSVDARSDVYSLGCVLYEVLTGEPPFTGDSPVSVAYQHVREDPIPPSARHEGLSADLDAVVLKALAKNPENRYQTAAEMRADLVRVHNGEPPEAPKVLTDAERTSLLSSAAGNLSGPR
T1 sequence (P9WGX7 whole entry): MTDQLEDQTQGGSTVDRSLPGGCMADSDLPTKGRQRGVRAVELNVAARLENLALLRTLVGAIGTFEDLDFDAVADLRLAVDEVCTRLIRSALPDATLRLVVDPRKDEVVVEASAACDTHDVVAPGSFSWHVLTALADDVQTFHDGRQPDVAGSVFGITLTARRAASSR

Nc1ncnc2c1ncn2[C@@H]1O[C@H](COP(=O)(O)OP(=O)(O)OP(=O)(O)O)[C@@H](O)[C@H]1O [ATP]
[γ-32P]ATP transfer to MyBP, autoradiography [1]: At concentrations of each kinase domain equally active in phosphorylating the nonspecific substrate, MyBP
phosphorylation of MyBP, autoradiography (UsfX (Rv3287c)): we incubated these proteins under conditions in which UsfX phosphorylated the model substrate
[γ-32P]ATP transfer to Rv0516c, RshA, Rv1904 and RsfA, autoradiography [2]: PknE weakly phosphorylated Rv1904 and RsfA (Rv1365c)
[γ-32P]ATP transfer to Rv0516c and RshA, autoradiography [3]: PknB and PknE also phosphorylated the anti–sigma factor RshA (Rv3221A)
[γ-32P]ATP transfer to MyBP and the MBP tag, autoradiography [4]: The MBP tag was phosphorylated by the PknA, PknB, and PknE kinase domains

O=C1c2ccccc2-c2n[nH]c3cccc1c23 [SP600125]
dose-dependent inhibition [5]: The SP600125 inhibitor blocked this Rv0516c phosphorylation (Figure 3B) in a dose-dependent manner
